The results in this text go back to ChEMBL document CHEMBL3046940, “Microwave-assisted synthesis of novel 4H-chromene derivatives bearing 2-aryloxyquinoline and their antimicrobial activity assessment” (2013).

Converted amounts (≈) assume the structure as drawn. A value given as a limit tells only on which side of the number the result lay.

Format in all cases: functional
The subject of experiment [1] is Candida albicans. Description: Antimicrobial activity against Candida albicans MTCC 227 assessed as growth inhibition after 24-48 hr by NCCLS broth microdilution method. In general terms: Broth dilution looks for growth in wells or tubes with falling amounts of substance.
For experiment [2], the system named is Vibrio cholerae. Nature of the experiment: Antimicrobial activity against Vibrio cholerae MTCC 3906 assessed as growth inhibition after 24-48 hr by NCCLS broth microdilution method.
Experiment [3] deals with Bacillus subtilis. Description: Antimicrobial activity against Bacillus subtilis MTCC 441 assessed as growth inhibition after 24-48 hr by NCCLS broth microdilution method.
Experiment [4] has as its system Clostridium tetani. Description: Antimicrobial activity against Clostridium tetani MTCC 449 assessed as growth inhibition after 24-48 hr by NCCLS broth microdilution method.
In experiment [5] the test system is Aspergillus fumigatus. Nature of the experiment: Antimicrobial activity against Aspergillus fumigatus MTCC 3008 assessed as growth inhibition after 24-48 hr by NCCLS broth microdilution method.
For experiment [6], the system named is Escherichia coli. Description: Antimicrobial activity against Escherichia coli MTCC 443 assessed as growth inhibition after 24-48 hr by NCCLS broth microdilution method.
Experiment [7] deals with Streptococcus pneumoniae. Description: Antimicrobial activity against Streptococcus pneumoniae MTCC 1936 assessed as growth inhibition after 24-48 hr by NCCLS broth microdilution method.
Experiment [8] has as its system Salmonella typhi. Nature of the experiment: Antimicrobial activity against Salmonella enterica subsp. enterica serovar Typhi MTCC 98 assessed as growth inhibition after 24-48 hr by NCCLS broth microdilution method.

For the compound `N#CC1=C(N)OC2=C(C(=O)CCC2)C1c1cc2ccccc2nc1Oc1ccccc1` (stereo not given), the minimum inhibitory concentration (MIC) (commonly the least concentration at which growth counts as inhibited) is 500 µg/mL (≈ 1220 µM) in experiment [1]; 250 µg/mL (≈ 611 µM) in experiment [2]; 250 µg/mL (≈ 611 µM) in experiment [3]; 250 µg/mL (≈ 611 µM) in experiment [4]; 1000 µg/mL (≈ 2440 µM) in experiment [5]; 100 µg/mL (≈ 244 µM) in experiment [6]. Also, the MIC in experiment [7] and in experiment [8] was 250 µg/mL (≈ 611 µM) in each case.

Consider `CC1(C)S[C@@H]2[C@H](NC(=O)[C@H](N)c3ccccc3)C(=O)N2[C@H]1C(=O)O` [AMPICILLIN], for which the MIC in experiment [2] amounted to 100 µg/mL (≈ 286 µM); in experiment [3], 250 µg/mL (≈ 715 µM); in experiment [4], 250 µg/mL (≈ 715 µM); in experiment [6], 100 µg/mL (≈ 286 µM); in experiment [7] it was 100 µg/mL (≈ 286 µM); in experiment [8], 100 µg/mL (≈ 286 µM).

`COc1ccc(Oc2nc3ccc(OC)cc3cc2C2C(C#N)=C(N)OC3=C2C(=O)CC(C)(C)C3)cc1` (stereo not given): the MIC came to 250 µg/mL (≈ 502 µM) in experiment [1]; 250 µg/mL (≈ 502 µM) in experiment [2]; 1000 µg/mL (≈ 2010 µM) in experiment [3]; 250 µg/mL (≈ 502 µM) in experiment [4]; 500 µg/mL (≈ 1000 µM) in experiment [5]; 250 µg/mL (≈ 502 µM) in experiment [6]. In addition, the MIC in experiment [7] was 1000 µg/mL (≈ 2010 µM); in experiment [8] it was 250 µg/mL (≈ 502 µM).

As for `COc1ccc2nc(Oc3ccc(C)cc3)c(C3C(C#N)=C(N)OC4=C3C(=O)CC(C)(C)C4)cc2c1` (stereo not given), the MIC in experiment [1] is 1000 µg/mL (≈ 2080 µM); in experiment [2], 200 µg/mL (≈ 415 µM); in experiment [3], 500 µg/mL (≈ 1040 µM); in experiment [4], 100 µg/mL (≈ 208 µM); in experiment [5], 500 µg/mL (≈ 1040 µM); in experiment [6], 100 µg/mL (≈ 208 µM). Besides, the MIC was found to be 500 µg/mL (≈ 1040 µM) in experiment [7] and 100 µg/mL (≈ 208 µM) in experiment [8].

`Cc1ccc(Oc2nc3ccccc3cc2C2C(C#N)=C(N)OC3=C2C(=O)CCC3)cc1` (stereo not given): the MIC amounted to 500 µg/mL (≈ 1180 µM) in experiment [1]; 200 µg/mL (≈ 472 µM) in experiment [2]; 1000 µg/mL (≈ 2360 µM) in experiment [3]; 500 µg/mL (≈ 1180 µM) in experiment [4]; 500 µg/mL (≈ 1180 µM) in experiment [5]; 250 µg/mL (≈ 590 µM) in experiment [6]. For the same compound, the minimum inhibitory concentration (MIC) in experiment [7] and in experiment [8] was 500 µg/mL (≈ 1180 µM) throughout.

For `O=C(N[C@H](CO)[C@H](O)c1ccc([N+](=O)[O-])cc1)C(Cl)Cl` [CHLORAMPHENICOL], the MIC in experiment [2], in experiment [3], in experiment [4], in experiment [6], in experiment [7] and in experiment [8] was 50 µg/mL (≈ 155 µM) in each case.

Take `COC1=CC(=O)C[C@@H](C)[C@]12Oc1c(Cl)c(OC)cc(OC)c1C2=O` [GRISEOFULVIN]: the MIC amounted to 500 µg/mL (≈ 1420 µM) in experiment [1] and 100 µg/mL (≈ 283 µM) in experiment [5].

As to `CCn1cc(C(=O)O)c(=O)c2cc(F)c(N3CCNCC3)cc21` [NORFLOXACIN], the MIC is 10 µg/mL (≈ 31.3 µM) in experiment [2]; 100 µg/mL (≈ 313 µM) in experiment [3]; 50 µg/mL (≈ 157 µM) in experiment [4]; 10 µg/mL (≈ 31.3 µM) in experiment [6]; 10 µg/mL (≈ 31.3 µM) in experiment [7]; 10 µg/mL (≈ 31.3 µM) in experiment [8].

For the compound NYSTATIN, the MIC in experiment [1] and in experiment [5] was 100 µg/mL in each case.

For `N#CC1=C(N)OC2=C(C(=O)CCC2)C1c1cc2ccccc2nc1Oc1ccc(F)cc1` (stereo not given), the MIC in experiment [1] is 250 µg/mL (≈ 585 µM); in experiment [2] it was 500 µg/mL (≈ 1170 µM); in experiment [3], 250 µg/mL (≈ 585 µM); in experiment [4], 500 µg/mL (≈ 1170 µM); in experiment [5], more than 1000 µg/mL; in experiment [6] it was 100 µg/mL (≈ 234 µM). The MIC was determined as 250 µg/mL (≈ 585 µM) in experiment [7] and 200 µg/mL (≈ 468 µM) in experiment [8].

As to `COc1ccc2nc(Oc3ccccc3)c(C3C(C#N)=C(N)OC4=C3C(=O)CC(C)(C)C4)cc2c1` (stereo not given), the MIC in experiment [1] stood at 500 µg/mL (≈ 1070 µM); in experiment [2], 200 µg/mL (≈ 428 µM); in experiment [3] it was 500 µg/mL (≈ 1070 µM); in experiment [4] it was 100 µg/mL (≈ 214 µM); in experiment [5], 1000 µg/mL (≈ 2140 µM); in experiment [6], 200 µg/mL (≈ 428 µM). Besides, the MIC in experiment [7] and in experiment [8] was 500 µg/mL (≈ 1070 µM) in each case.

Regarding `O=C(O)c1cn(C2CC2)c2cc(N3CCNCC3)c(F)cc2c1=O` [CIPROFLOXACIN], the minimum inhibitory concentration (MIC) in experiment [2] is 25 µg/mL (≈ 75.4 µM); in experiment [6] it was 25 µg/mL (≈ 75.4 µM); in experiment [7] it was 50 µg/mL (≈ 151 µM); in experiment [8] it was 25 µg/mL (≈ 75.4 µM).

Regarding `COc1ccc(Oc2nc3ccccc3cc2C2C(C#N)=C(N)OC3=C2C(=O)CCC3)cc1` (stereo not given), the MIC in experiment [1] is 1000 µg/mL (≈ 2280 µM); in experiment [2], 100 µg/mL (≈ 228 µM); in experiment [3] it was 200 µg/mL (≈ 455 µM); in experiment [4], 1000 µg/mL (≈ 2280 µM); in experiment [5], more than 1000 µg/mL; in experiment [6] it was 150 µg/mL (≈ 341 µM). Moreover, the MIC was found to be 100 µg/mL (≈ 228 µM) in experiment [7] and 250 µg/mL (≈ 569 µM) in experiment [8].

For `COc1ccc2nc(Oc3ccc(F)cc3)c(C3C(C#N)=C(N)OC4=C3C(=O)CC(C)(C)C4)cc2c1` (stereo not given), the MIC in experiment [1] was 500 µg/mL (≈ 1030 µM); in experiment [2], 250 µg/mL (≈ 515 µM); in experiment [3], 200 µg/mL (≈ 412 µM); in experiment [4], 200 µg/mL (≈ 412 µM); in experiment [5], 500 µg/mL (≈ 1030 µM); in experiment [6], 62.5 µg/mL (≈ 129 µM). Also, the MIC in experiment [7] was found to be 150 µg/mL (≈ 309 µM); in experiment [8] it was 100 µg/mL (≈ 206 µM).
